The source of these data is US6855710B2, “Substituted indolines with an inhibitory effect on various kinases and complexes of CDKs” (Boehringer Ingelheim Pharma KG, priority 1998, dated 2005).

Where only a bound is given, the exact number is not on record here.

Consider `CC(=O)N(C)c1cccc(N/C(=C2\C(=O)Nc3ccccc32)c2ccccc2)c1` [Example 38, (Z)-3-{1-[3-(N-acetyl-N-methylamino)-phenylamino]-1-phenyl-methylidene}-2-indolinone], for which the melting point lay in the range of 237 to 239 °C.

Turning to `CCC(=O)Nc1ccc(N/C(=C2\C(=O)Nc3ccccc32)c2ccccc2)cc1` [Example 39, (Z)-3-[1-(4-propionylamino-phenylamino)-1-phenyl-methylidene]-2-indolinone], the melting point fell in the range of 255 to 256 °C.

For the compound `COCC(=O)Nc1ccc(N/C(=C2\C(=O)Nc3ccccc32)c2ccccc2)cc1` [Example 40, (Z)-3-[1-(4-methoxymethylcarbonylamino-phenylamino)-1-phenyl-methylidene]-2-indolinone], the melting point is 238 to 240 °C.

Take `CN(C)CC(=O)Nc1ccc(N/C(=C2\C(=O)Nc3ccccc32)c2ccccc2)cc1` [Example 41, (Z)-3-[1-(4-dimethylaminomethylcarbonylamino-phenylamino)-1-phenyl-methylidene]-2-indolinone]: the melting point is 234 to 236 °C.

`O=C(CN1CCOCC1)Nc1ccc(N/C(=C2\C(=O)Nc3ccccc32)c2ccccc2)cc1` [Example 43, (Z)-3-[1-(4-morpholinomethylcarbonylamino-phenylamino)-1-phenyl-methylidene]-2-indolinone] registered a melting point of 246 to 248 °C.

With `CCNC(=O)Nc1ccc(N/C(=C2\C(=O)Nc3ccccc32)c2ccccc2)cc1` [Example 45, (Z)-3-[1-(4-ethylaminocarbonylamino-phenylamino)-1-phenyl-methylidene]-2-indolinone], the melting point is 264 to 265 °C.

For `CCCCNC(=O)Nc1ccc(N/C(=C2\C(=O)Nc3ccccc32)c2ccccc2)cc1` [Example 46, (Z)-3-[1-(4-butylaminocarbonylamino-phenylamino)-1-phenyl-methylidene]-2-indolinone], the melting point was 216 to 217 °C.

`CC(=O)N(C)c1ccc(N/C(=C2\C(=O)Nc3ccccc32)c2ccccc2)cc1` [Example 47, (Z)-3-{1-[4-(N-acetyl-N-methyl-amino)-phenylamino]-1-phenyl-methylidene}-2-indolinone] gave a melting point of 287 to 288 °C.

Regarding `CCN(CC)CC(=O)N(C)c1ccc(N/C(=C2\C(=O)Nc3ccccc32)c2ccccc2)cc1` [Example 49, (Z)-3-{1-[4-(N-Diethylaminomethylcarbonyl-N-methyl-amino)-phenylamino]-1-phenyl-methylidene}-2-indolinone], the melting point was in the range of 242 to 247 °C.

With `CN(C(=O)CN1CCCCC1)c1ccc(N/C(=C2\C(=O)Nc3ccccc32)c2ccccc2)cc1` [Example 50, (Z)-3-{1-[4-(N-piperidinomethylcarbonyl-N-methyl-amino)-phenylamino]-1-phenyl-methylidene}-2-indolinone], the melting point is 230 to 235 °C (dec.).

On to `CN(C(=O)CN1CCN(Cc2ccccc2)CC1)c1ccc(N/C(=C2\C(=O)Nc3ccccc32)c2ccccc2)cc1` [Example 53, (Z)-3-{1-[4-(N-(4-benzylpiperazinomethylcarbonyl)-N-methyl-amino)-phenylamino]-1-phenyl-methylidene}-2-indolinone], for which the melting point lay in the range of 157 to 158 °C.

For `NCc1ccc(N/C(=C2\C(=O)Nc3ccccc32)c2ccccc2)cc1` [Example 55, (Z)-3-[1-(4-aminomethyl-phenylamino)-1-phenyl-methylidene]-2-indolinone], the melting point fell in the range of 236 to 237 °C.

`CC(=O)NCc1ccc(N/C(=C2\C(=O)Nc3ccccc32)c2ccccc2)cc1` [Example 56, (Z)-3-[1-(4-acetylaminomethyl-phenylamino)-1-phenyl-methylidene]-2-indolinone]: the melting point was in the range of 207 to 210 °C.

For `CC(C)(C)OC(=O)NCC(=O)NCc1ccc(N/C(=C2\C(=O)Nc3ccccc32)c2ccccc2)cc1` [Example 57, (Z)-3-[1-(4-tert.butoxycarbonylaminomethylcarbonylaminomethyl-phenylamino)-1-phenyl-methylidene}-2-indolinone], the melting point was 218 to 220 °C.

For `CC(=O)c1ccc(N/C(=C2\C(=O)Nc3ccccc32)c2ccccc2)cc1` [Example 60, (Z)-3-[1-(4-acetylphenylamino)-1-phenyl-methylidene]-2-indolinone], the melting point lay within 207 to 209 °C.

With `CN(C(=C1C(=O)Nc2ccccc21)c1ccccc1)c1ccc(C#N)cc1` [Example 61, 3-{1-[N-(4-cyanophenyl)-N-methyl-amino]-1-phenyl-methylidene}-2-indolinone], the melting point was 239 °C.

Consider `CC(=O)O.N=C(N)c1ccc(N/C(=C2\C(=O)Nc3ccccc32)c2ccccc2)cc1` [Example 62, (Z)-3-{1-[N-(4-amidinophenyl)-amino]-1-phenyl-methylidene}-2-indolinone-hydroacetate], for which the melting point is > 260 °C (dec.).

`N=C(N)c1cccc(N/C(=C2\C(=O)Nc3ccccc32)c2ccccc2)c1` [Example 64, (Z)-3-[1-(3-amidinophenylamino)-1-phenyl-methylidene]-2-indolinone] registered a melting point of 235 to 237 °C.

Consider `CNC(=N)c1cccc(N/C(=C2\C(=O)Nc3ccccc32)c2ccccc2)c1` [Example 65, (Z)-3-{1-[3-(N-methylcarbamimidoyl)-phenylamino]-1-phenyl-methylidene}-2-indolinone], for which the melting point is 248 to 250 °C.

`CN(C)C(=N)c1cccc(N/C(=C2\C(=O)Nc3ccccc32)c2ccccc2)c1` [Example 66, (Z)-3-{1-[3-(N,N-dimethylcarbamimidoyl)-phenylamino)-1-phenyl-methylidene}-2-indolinone] had a melting point of 238 to 242 °C.

Take `CC(C)(C)OC(=O)NCc1cccc(N/C(=C2\C(=O)Nc3ccccc32)c2ccccc2)c1` [Example 67, (Z)-3-[1-(3-tert.butoxycarbonylaminomethyl-phenylamino)-1-phenyl-methylidene]-2-indolinone]: the melting point fell in the range of 190 to 195 °C.

`NCc1cccc(N/C(=C2\C(=O)Nc3ccccc32)c2ccccc2)c1` [Example 68, (Z)-3-[1-(3-aminomethyl-phenylamino)-1-phenyl-methylidene]-2-indolinone]: the melting point was in the range of 175 to 185 °C.

`Nc1cccc(N/C(=C2\C(=O)Nc3ccccc32)c2ccccc2)c1` [Example 69, (Z)-3-[1-(3-aminophenylamino)-1-phenyl-methylidene]-2-indolinone] returned a melting point of 267 to 268 °C.

Take `CN1C(=O)/C(=C(\Nc2cccc(C#N)c2)c2ccccc2)c2ccccc21` [Example 73, (Z)-1-methyl-3-[1-(3-cyanophenylamino)-1-phenyl-methylidene]-2-indolinone]: the melting point lay in the range of 158 to 160 °C.

For `CN(C)CC(=O)NCc1ccc(N/C(=C2\C(=O)Nc3ccccc32)c2ccccc2)cc1` [Example 74, (Z)-3-[1-(4-dimethylaminomethylcarbonylaminomethyl-phenylamino)-1-phenyl-methylidene}-2-indolinone], the melting point fell in the range of 200 to 205 °C.

As to `COCC(=O)NCc1ccc(N/C(=C2\C(=O)Nc3ccccc32)c2ccccc2)cc1` [Example 76, (Z)-3-[1-(4-methoxymethylcarbonylaminomethyl-phenylamino)-1-phenyl-methylidene]-2-indolinone], the melting point was 178 to 180 °C.

Regarding `O=C1Nc2ccc([N+](=O)[O-])cc2/C1=C(/Nc1ccc(N2CCOCC2)cc1)c1ccccc1` [Example 80, (Z)-3-[1-(4-morpholinophenylamino)-1-phenyl-methylidene]-5-nitro-2-indolinone], the melting point is greater than 300 °C.

On to `CC(=O)Nc1cccc(N/C(=C2\C(=O)Nc3ccc([N+](=O)[O-])cc32)c2ccccc2)c1` [Example 89, (Z)-3-[1-(3-acetylamino-phenylamino)-1-phenyl-methylidene]-5-nitro-2-indolinone], for which the melting point is 318 to 320 °C (dec.).

On to `CC(C)(C)OC(=O)Nc1ccc(N/C(=C2\C(=O)Nc3ccc([N+](=O)[O-])cc32)c2ccccc2)cc1` [Example 90, (Z)-3-[1-(4-tert.butoxycarbonylamino-phenylamino)-1-phenyl-methylidene]-5-nitro-2-indolinone], for which the melting point was 235 to 237 °C (dec.).

In turn, `Nc1ccc(N/C(=C2\C(=O)Nc3ccc([N+](=O)[O-])cc32)c2ccccc2)cc1` [Example 91, (Z)-3-[1-(4-aminophenylamino)-1-phenyl-methylidene]-5-nitro-2-indolinone] came in with a melting point of 269 °C.

As to `O=CNc1ccc(N/C(=C2\C(=O)Nc3ccc([N+](=O)[O-])cc32)c2ccccc2)cc1` [Example 92, (Z)-3-[1-(4-formylamino-phenylamino)-1-phenyl-methylidene]-5-nitro-2-indolinone], the melting point was 355 to 356 °C (dec.).

With `CC(=O)Nc1ccc(N/C(=C2\C(=O)Nc3ccc([N+](=O)[O-])cc32)c2ccccc2)cc1` [Example 93, (Z)-3-[1-(4-acetylamino-phenylamino)-1-phenyl-methylidene]-5-nitro-2-indolinone], the melting point lay in the range of 328 to 330 °C.

`CN(C)CC(=O)Nc1ccc(N/C(=C2\C(=O)Nc3ccc([N+](=O)[O-])cc32)c2ccccc2)cc1` [Example 94, (Z)-3-[1-(4-dimethylaminomethylcarbonylamino-phenylamino)-1-phenyl-methylidene]-5-nitro-2-indolinone] came in with a melting point of 254 to 257 °C.

In the case of `O=C(CN1CCOCC1)Nc1ccc(N/C(=C2\C(=O)Nc3ccc([N+](=O)[O-])cc32)c2ccccc2)cc1` [Example 96, (Z)-3-[1-(4-morpholinomethylcarbonylamino-phenylamino)-1-phenyl-methylidene]-5-nitro-2-indolinone], the melting point lay within 265 to 267 °C.

For `CC(=O)N(C)c1ccc(N/C(=C2\C(=O)Nc3ccc([N+](=O)[O-])cc32)c2ccccc2)cc1` [Example 98, (Z)-3-{1-[4-(N-acetyl-N-methyl-amino)-phenylamino]-1-phenyl-methylidene}-5-nitro-2-indolinone], the melting point was 305 to 307 °C.
